Test results published in ChEMBL document CHEMBL1123746, “Synthesis of 5-beta-D-ribofuranosylnicotinamide and its N-methyl derivative. The isosteric and isoelectronic analogues of nicotinamide nucleoside” (1987).
The source made the active and inactive calls. The calls are words filed in the database; no cut-off is given here.

Assays:
[1] = Compound tested for the inhibition of ADP-ribosylation in protein synthesis; Inactive; assay type: functional
[2] = Compound tested for the inhibition of IMP-dehydrogenase causing a profound depletion of GMP anf accumulation of IMP; Active; assay type: functional
CCRF-CEM = experiment: In vitro inhibitory activity against the growth of CCRF-CEM tumor cells at a concentration of 13.0 ug/mL; Inactive; assay type: functional, cell-based; conditions: Homo sapiens
MOLT-3 = experiment: In vitro inhibitory activity against the growth of F-Molt-3 tumor cells at a concentration of 15.0 ug/mL; Inactive; assay type: functional, cell-based; conditions: Homo sapiens
P815 = experiment: In vitro inhibitory activity against the growth of P-815 tumor cells at a concentration of 16.0 ug/mL; Inactive; assay type: functional, cell-based; conditions: Mus musculus
HL-60 = experiment: In vitro inhibitory activity against the growth of HL-60 tumor cells at a concentration of 24.0 ug/mL; Inactive; assay type: functional, cell-based; conditions: Homo sapiens

Row | Activity [2] | SMILES | Activity [1] | further results
1 |  | C[n+]1cc(C(N)=O)cc([C@@H]2O[C@H](COP(=O)([O-])OP(=O)(O)OC[C@@H]3O[C@H](n4cnc5c(N)ncnc54)[C@@H](O)[C@H]3O)[C@@H](O)[C@H]2O)c1 | inactive | 
2 | Active | NC(=O)c1csc([C@H]2O[C@@H](COP(=O)(O)OP(=O)(O)OC[C@H]3O[C@@H](n4cnc5c(N)ncnc54)[C@H](O)[C@@H]3O)[C@H](O)[C@@H]2O)n1 |  | 
3 | Active | NC(=O)c1csc([C@@H]2O[C@H](CO)[C@@H](O)[C@H]2O)n1 |  | 
4 |  | C[n+]1cc(C(N)=O)cc(C2O[C@H](CO)[C@@H](O)[C@H]2O)c1 (single isomer, unassigned) |  | inhibition (CCRF-CEM): inactive; inhibition (MOLT-3): inactive; inhibition (P815): inactive; inhibition (HL-60): inactive
5 |  | NC(=O)c1cncc([C@@H]2O[C@H](COP(=O)(O)OP(=O)(O)OC[C@@H]3O[C@H](n4cnc5c(N)ncnc54)[C@@H](O)[C@H]3O)[C@@H](O)[C@H]2O)c1 | inactive | 
